From PMC4413848, “Antibacterial activity of alkyl gallates is a combination of direct targeting of FtsZ and permeabilization of bacterial membranes” (Frontiers in Microbiology, 2015)

What was measured:
[1] = molecular target: T1, FtsZ (Bacillus subtilis, UniProt P17865); test: fluorescence titration with purified FtsZ (poorer fit, R^[…] = […]); also GTPase inhibition and sedimentation; type: binding
T1 sequence (P17865 1-382): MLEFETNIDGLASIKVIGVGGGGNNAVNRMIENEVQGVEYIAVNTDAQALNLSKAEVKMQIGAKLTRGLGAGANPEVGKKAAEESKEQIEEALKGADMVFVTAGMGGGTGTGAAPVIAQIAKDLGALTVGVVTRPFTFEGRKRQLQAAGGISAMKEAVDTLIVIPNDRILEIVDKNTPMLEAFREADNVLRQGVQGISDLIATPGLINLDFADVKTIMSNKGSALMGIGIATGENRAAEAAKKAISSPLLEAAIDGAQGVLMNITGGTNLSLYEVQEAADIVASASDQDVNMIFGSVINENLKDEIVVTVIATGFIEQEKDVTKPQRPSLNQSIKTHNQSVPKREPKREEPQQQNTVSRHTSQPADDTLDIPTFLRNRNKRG

[2] = molecular target: T1, FtsZ; test: malachite green GTPase assay at […] with Triton X-100 (Kd could not be calculated); type: biochemical
[3] = molecular target: T1, FtsZ; test: fluorescence titration (intrinsic alkyl gallate fluorescence) with purified FtsZ; also GTPase inhibition and sedimentation; type: binding

Row | SMILES | Kd [3] | also measured
1 | CCCCCOC(=O)c1cc(O)c(O)c(O)c1 [compound 8, Pentyl gallate] | – | Kd [1]: ~3.1 µM
2 | CCCCCCOC(=O)c1cc(O)c(O)c(O)c1 [compound 9, Hexyl gallate] | – | malachite green GTPase assay at 50 μg/mL with Triton X-100 (Kd could not be calc) [2]: All of the compounds showed similar levels of inhibition of the GTPase activity of FtsZ.
3 | CCCCCCCOC(=O)c1cc(O)c(O)c(O)c1 [compound 10, Heptyl gallate] | 0.08 ± 0.03 µM | –
4 | CCCCCCCCOC(=O)c1cc(O)c(O)c(O)c1 [compound 11, Octyl gallate] | 0.84 ± 0.22 µM | –
